Assay results published in ChEMBL document CHEMBL1153550, “In vitro study of Candida tropicalis isolates exhibiting paradoxical growth in the presence of high concentrations of caspofungin” (2007).
Values after ≈ are worked out from the molar mass of the structure shown. Active and inactive are the calls of the source. No cut-off for these calls is given here.

How the values were obtained:
[1] = system: Candida tropicalis; assay: Antifungal activity against Candida tropicalis ATCC 750 in RPMI 1640 medium assessed as paradoxical growth at 12.5 ug/ml after 48 hrs by broth microdilution method; type: functional, organism-based
[2] = system: Candida tropicalis; assay: Antifungal activity against 2 x 10^7 CFU/ml Candida tropicalis isolate 13 in RPMI 1640 medium after 24 hrs by broth microdilution method; type: functional; conditions: isolate 13, 24 h
[3] = system: Candida tropicalis; assay: Antifungal activity against 10^5 CFU/ml Candida tropicalis isolate 4 in RPMI 1640 medium at 0.4 to 12.5 ug/ml treated for 24 hrs followed by incubation in drug free medium for 48 hrs by broth microdilution method; type: functional, organism-based
[4] = system: Candida tropicalis; assay: Antifungal activity against 2 x 10^7 CFU/ml Candida tropicalis isolate 4 in RPMI 1640 medium assessed as paradoxical growth at 12.5 ug/ml after 24 hrs by broth microdilution method; type: functional, organism-based
[5] = system: Candida tropicalis; assay: Antifungal activity against 10^5 CFU/ml Candida tropicalis isolate 2 in RPMI 1640 medium at 12.5 ug/ml treated for 48 hrs followed by incubation in drug free medium for 48 hrs by broth microdilution method; type: functional, organism-based
[6] = system: Candida tropicalis; assay: Antifungal activity against 10^5 CFU/ml Candida tropicalis isolate 8 in RPMI 1640 medium at 12.5 ug/ml treated for 48 hrs followed by incubation in drug free medium for 48 hrs by broth microdilution method; type: functional, organism-based
[7] = system: Candida tropicalis; assay: Antifungal activity against 10^5 CFU/ml Candida tropicalis ATCC 750 in RPMI 1640 medium at 0.4 to 12.5 ug/ml treated for 48 hrs followed by incubation in drug free medium for 48 hrs by broth microdilution method; type: functional, organism-based
[8] = system: Candida tropicalis; assay: Antifungal activity against Candida tropicalis clinical isolate in antibiotic medium 3 assessed as paradoxical growth-related change in CFU treated for 24 hrs by time-kill assay; type: functional
[9] = system: Candida tropicalis; assay: Antifungal activity against Candida tropicalis isolate 14 in RPMI 1640 medium assessed as paradoxical growth at 12.5 ug/ml after 24 hrs by broth microdilution method; type: functional, organism-based
[10] = system: Candida tropicalis; assay: Antifungal activity against > 2 x 10^7 CFU/ml Candida tropicalis isolate 13 in RPMI 1640 medium assessed as partial growth after 24 hrs by broth microdilution method; type: functional, organism-based
[11] = system: Candida tropicalis; assay: Antifungal activity against Candida tropicalis isolate 5 in RPMI 1640 medium assessed as paradoxical growth at 12.5 ug/ml after 48 hrs by broth microdilution method; type: functional, organism-based
[12] = system: Candida tropicalis; assay: Antifungal activity against 10^5 CFU/ml Candida tropicalis isolate 4 in RPMI 1640 medium at 0.4 to 12.5 ug/ml treated for 48 hrs followed by incubation in drug free medium for 48 hrs by broth microdilution method; type: functional, organism-based
[13] = system: Candida tropicalis; assay: Antifungal activity against Candida tropicalis isolate 4 in RPMI 1640 medium assessed as paradoxical growth at 12.5 ug/ml after 24 hrs by broth microdilution method; type: functional, organism-based
[14] = system: Candida tropicalis; assay: Antifungal activity against 10^5 CFU/ml Candida tropicalis isolate 5 in RPMI 1640 medium at 12.5 ug/ml treated for 24 hrs followed by incubation in drug free medium for 48 hrs by broth microdilution method; type: functional, organism-based
[15] = system: Candida tropicalis; assay: Antifungal activity against 2 x 10^7 CFU/ml Candida tropicalis isolate 10 in RPMI 1640 medium after 24 hrs by broth microdilution method; type: functional; conditions: isolate 10, 24 h
[16] = system: Candida tropicalis; assay: Antifungal activity against 2 x 10^7 CFU/ml Candida tropicalis ATCC 750 in RPMI 1640 medium after 24 hrs by broth microdilution method; type: functional; conditions: ATCC 750, 24 h
[17] = system: Candida tropicalis; assay: Antifungal activity against 2 x 10^7 CFU/ml Candida tropicalis isolate 9 in RPMI 1640 medium after 24 hrs by broth microdilution method; type: functional; conditions: isolate 9, 24 h
[18] = system: Candida tropicalis; assay: Antifungal activity against > 2 x 10^7 CFU/ml Candida tropicalis isolate 13 in antibiotic medium 3 assessed as partial growth after 24 hrs by broth microdilution method; type: functional, organism-based
[19] = system: Candida tropicalis; assay: Antifungal activity against 2 x 10^7 CFU/ml Candida tropicalis isolate 9 in antibiotic medium 3 after 24 hrs by broth microdilution method; type: functional; conditions: isolate 9, 24 h
[20] = system: Candida tropicalis; assay: Antifungal activity against 2 x 10^7 CFU/ml Candida tropicalis isolate 1 in antibiotic medium 3 after 24 hrs by broth microdilution method; type: functional; conditions: isolate 1, 24 h
[21] = system: Candida tropicalis; assay: Antifungal activity against > 2 x 10^7 CFU/ml Candida tropicalis isolate 6 in antibiotic medium 3 assessed as partial growth after 24 hrs by broth microdilution method; type: functional, organism-based
[22] = system: Candida tropicalis; assay: Antifungal activity against Candida tropicalis ATCC 750 in RPMI 1640 medium assessed as paradoxical growth at 6.25 ug/ml after 48 hrs by broth microdilution method; type: functional, organism-based
[23] = system: Candida tropicalis; assay: Antifungal activity against 2 x 10^7 CFU/ml Candida tropicalis isolate 4 in RPMI 1640 medium after 24 hrs by broth microdilution method; type: functional; conditions: isolate 4, 24 h
[24] = system: Candida tropicalis; assay: Antifungal activity against > 2 x 10^7 CFU/ml Candida tropicalis isolate 7 in antibiotic medium 3 assessed as partial growth after 24 hrs by broth microdilution method; type: functional, organism-based
[25] = system: Candida tropicalis; assay: Antifungal activity against 10^5 CFU/ml Candida tropicalis isolate 13 in RPMI 1640 medium at =< 0.09 ug/ml after 24 hrs followed by incubation in drug free medium for 48 hrs by broth microdilution method; type: functional, organism-based
[26] = system: Candida tropicalis; assay: Antifungal activity against 10^5 CFU/ml Candida tropicalis isolate 10 in RPMI 1640 medium at 12.5 ug/ml treated for 48 hrs followed by incubation in drug free medium for 48 hrs by broth microdilution method; type: functional, organism-based
[27] = system: Candida tropicalis; assay: Antifungal activity against Candida tropicalis isolate 6 in RPMI 1640 medium assessed as paradoxical growth at 12.5 ug/ml after 24 hrs by broth microdilution method; type: functional, organism-based
[28] = system: Candida tropicalis; assay: Antifungal activity Candida tropicalis isolate 4 in RPMI 1640 medium at 12.5 ug/ml after 24 hrs by time-kill assay; type: functional, organism-based
[29] = system: Candida tropicalis; assay: Antifungal activity against 10^5 CFU/ml Candida tropicalis isolate 15 in RPMI 1640 medium at 12.5 ug/ml treated for 48 hrs followed by incubation in drug free medium for 48 hrs by broth microdilution method; type: functional, organism-based
[30] = system: Candida tropicalis; assay: Antifungal activity against > 2 x 10^7 CFU/ml Candida tropicalis isolate 14 in RPMI 1640 medium assessed as partial growth after 24 hrs by broth microdilution method; type: functional, organism-based
[31] = system: Candida tropicalis; assay: Antifungal activity against Candida tropicalis isolate 8 in RPMI 1640 medium assessed as paradoxical growth at 12.5 ug/ml after 48 hrs by broth microdilution method; type: functional, organism-based
[32] = system: Candida tropicalis; assay: Antifungal activity against Candida tropicalis isolate 7 in RPMI 1640 medium assessed as paradoxical growth at 6.25 ug/ml after 48 hrs by broth microdilution method; type: functional, organism-based
[33] = system: Candida tropicalis; assay: Antifungal activity against Candida tropicalis isolate 13 in RPMI 1640 medium assessed as paradoxical growth at 12.5 ug/ml after 48 hrs by broth microdilution method; type: functional, organism-based
[34] = system: Candida tropicalis; assay: Antifungal activity against Candida tropicalis isolate 5 in RPMI 1640 medium assessed as paradoxical growth at 12.5 ug/ml after 24 hrs by broth microdilution method; type: functional, organism-based
[35] = system: Candida tropicalis; assay: Antifungal activity against > 2 x 10^7 CFU/ml Candida tropicalis isolate 3 in antibiotic medium 3 assessed as partial growth after 24 hrs by broth microdilution method; type: functional, organism-based

- MIC [2]: 0.024 µg/mL (≈ 0.022 µM)
- MIC [15]: 0.024 µg/mL (≈ 0.022 µM)
- MIC [16]: 0.024 µg/mL (≈ 0.022 µM)
- MIC [17]: 0.024 µg/mL (≈ 0.022 µM)
- MIC [19]: 0.024 µg/mL (≈ 0.022 µM)
- MIC [20]: 0.024 µg/mL (≈ 0.022 µM)
- MIC [23]: 0.024 µg/mL (≈ 0.022 µM)
Compound: CC[C@H](C)C[C@H](C)CCCCCCCCC(=O)N[C@H]1C[C@@H](O)[C@@H](NCCN)NC(=O)[C@@H]2[C@@H](O)CCN2C(=O)[C@H]([C@H](O)CCN)NC(=O)[C@H]([C@H](O)[C@@H](O)c2ccc(O)cc2)NC(=O)[C@@H]2C[C@@H](O)CN2C(=O)[C@H]([C@@H](C)O)NC1=O [CASPOFUNGIN]
- Activity [1]: Active
- Activity [3]: inactive
- Activity [4]: inactive
- Activity [5]: inactive
- Activity [6]: inactive
- Activity [7]: inactive
- Activity [8]: 0.36 log10CFU/ml
- Activity [9]: inactive
- Activity [10]: inactive
- Activity [11]: inactive
- Activity [12]: inactive
- Activity [13]: inactive
- Activity [14]: inactive
- Activity [18]: inactive
- Activity [21]: inactive
- Activity [22]: Active
- Activity [24]: inactive
- Activity [25]: Active
- Activity [26]: inactive
- Activity [27]: inactive
- Activity [28]: inactive
- Activity [29]: inactive
- Activity [30]: inactive
- Activity [31]: inactive
- Activity [32]: Active
- Activity [33]: inactive
- Activity [34]: inactive
- Activity [35]: inactive
